# Data taken from ChEMBL document CHEMBL3217441, “Aromatic chloride to nitrile transformation: medicinal and synthetic chemistry” (Medchemcomm, 2010).
# Columns and labels:
# [1] = Lipophilicity, log D of the compound at pH 7.4; format: physicochemical; settings: buffer
# [2] = Half life in human liver microsomes; format: ADME
# [3] = Inhibition of HIV-1 RDDP after 30 mins by scintillation counting analysis in presence of [3H]-TTP; set-up: species or system Human immunodeficiency virus 1
SMILES,logD [1],half-life [2],IC50 [3]
CCc1nc(C)n(CC)c1Oc1cc(C#N)cc(C#N)c1,1.9,101 min,131 nM
CCc1nc(C)n(CC)c1Oc1cc(Cl)cc(C#N)c1,3.2,16 min,18 nM
